According to patent US20230295234A1, “ANTIMICROBIAL PEPTIDOMIMETICS” (SPEXIS AG, priority 2020, published 2023):
Bridge positions count the residues as written; N and C are the ends. Square brackets hold non-standard residues; d marks the D form. Peptide text beside a SMILES is read from it. Pro(4R-NH2) = N[C@H]1CN[C@H](C(=O)O)C1; Hyp = O=C(O)[C@@H]1C[C@@H](O)CN1; Gly(N(CH2)3NH2) = NCCCNCC(=O)O; Pen = CC(C)(S)[C@H](N)C(=O)O; dDab = NCC[C@@H](N)C(=O)O; Dab = NCC[C@H](N)C(=O)O; Nlys = NCCCCNCC(=O)O

Experiments:
[1] = tested on: Klebsiella pneumoniae SSI3010; conditions: SSI3010
Procedure: (§1) Lyophilized peptides were weighed on a Microbalance (Mettler MT5) and dissolved in sterile water to a final concentration of 1 mg/mL. Stock solutions were kept at +4° C., light protected.
(§2) Colonies of the microorganisms were diluted in saline (0.85%, NaCl) and adjusted using a McFarland reader (bioMérieux SA, Marcy-l'Etoile, France) to 0.5 McFarland standard. Subsequently, the bacterial suspension was diluted in Mueller-Hinton II (MHII, cation adjusted) broth to give approximately 5×10^5 colony forming units (CFU/mL).
(§3) 10^6 colony forming units (CFU)/mL. Aliquots (90 μl) of inoculate were added to 10 μl of water+P-80 (Polysorbate 80, 0.002% final concentration) containing the peptide in serial two-fold dilutions at 10 fold final concentration. The following microorganisms were used to determine antibiotic selectivity of the peptides: Escherichia coli ATCC 25922, Escherichia coli MCR-1 Af 45 and Klebsiella pneumoniae SSI3010.

[2] = tested on: Escherichia coli MCR-1 Af 45; conditions: MCR-1 Af 45
Procedure: as §1, §2, §3

[3] = tested on: Escherichia coli ATCC 25922; conditions: ATCC 25922
Procedure: as §1, §2, §3

[4] = tested on: human red blood cells (hRBC); experiment: Hemolysis of human red blood cells; type: cell-based; conditions: red cells of human, 1 h
Procedure: Lyophilized peptides were weighed on a Microbalance (Mettler MT5) and dissolved in sterile water to a final concentration of 1 mg/mL. Stock solutions were kept at +4° C., light protected. The peptides were tested for their hemolytic activity against human red blood cells (hRBC). Fresh hRBC were washed three times with phosphate buffered saline (PBS) and centrifuged for 5 min at 3000×g. Compounds (200 μg/mL) were incubated with 20% hRBC (v/v) for 1 h at 37° C. and shaking at 300 rpm. […] The samples were centrifuged, the supernatants were 8-fold diluted in PBS buffer and the optical densities (OD) were measured at 540 nm. […] Percent hemolysis was calculated as follows: (OD540peptide/OD540H2O)×100%.

| Compound | Klebsiella pneumoniae SSI3010 MIC [1] [µg/mL] | Escherichia coli MCR-1 Af 45 MIC [2] [µg/mL] | Escherichia coli ATCC 25922 MIC [3] [µg/mL] | Hemolysis at 0.2 g/L [4] [%] |
| --- | --- | --- | --- | --- |
| CCCC[C@H](NC(=O)[C@H](CCCNC(=N)N)NC(=O)[C@H](CCN)NC(=O)[C@@H]1CSSC(C)(C)[C@H](NC(=O)[C@H](Cc2ccc(O)cc2)NC(=O)[C@@H](NC(=O)[C@@H](NC(=O)[C@@H]2CCCN2C(=O)[C@@H](NC(=O)[C@@H]2CCCN2)C(C)C)[C@@H](C)CC)[C@@H](C)CC)C(=O)N[C@@H](CC(N)=O)C(=O)N[C@@H](CCCNC(=N)N)C(=O)N[C@@H](CCN)C(=O)N[C@@H]([C@@H](C)O)C(=O)N[C@H](CCN)C(=O)N[C@@H](CCCCN)C(=O)N1)C(=O)O [Example 2, Pro-Val-Pro-Ile-Ile-Tyr-Pen-Asn-Arg-Dab-Thr-^DDab-Lys-Cys-Dab-Arg-Nle] (HELM PEPTIDE1{P.V.P.I.I.Y.[Pen].N.R.[Dab].T.[NCC[C@@H](N[*:1])C(=O)[*:2]].K.C.[Dab].R.[Nle]}$PEPTIDE1,PEPTIDE1,7:R3-14:R3$$$V2.0) | 0.25 | 0.0625 | 0.0625 | 0 |
| CCCC[C@H](NC(=O)[C@H](CCCNC(=N)N)NC(=O)[C@H](CCC(N)=O)NC(=O)[C@@H]1CSSC(C)(C)[C@H](NC(=O)[C@H](Cc2ccc(O)cc2)NC(=O)[C@@H](NC(=O)[C@@H](NC(=O)[C@@H]2C[C@@H](N)CN2C(=O)[C@@H](NC(=O)[C@@H]2CCCN2)C(C)C)[C@@H](C)CC)[C@@H](C)CC)C(=O)N[C@@H](CC(N)=O)C(=O)N[C@@H](CCCNC(=N)N)C(=O)N[C@@H](CCN)C(=O)N[C@@H]([C@@H](C)O)C(=O)N[C@H](CCN)C(=O)N[C@@H](CCCCN)C(=O)N1)C(=O)O [Example 3, Pro-Val-Pro((4R)NH2)-Ile-Ile-Tyr-Pen-Asn-Arg-Dab-Thr-^DDab-Lys-Cys-Gln-Arg-Nle] (HELM PEPTIDE1{P.V.[N[C@@H]1C[C@@H](C(=O)[*:2])N([*:1])C1].I.I.Y.[Pen].N.R.[Dab].T.[NCC[C@@H](N[*:1])C(=O)[*:2]].K.C.Q.R.[Nle]}$PEPTIDE1,PEPTIDE1,7:R3-14:R3$$$V2.0) | 0.25 | 0.25 | 0.125 | 0 |
| CCCC[C@H](NC(=O)[C@H](CCCNC(=N)N)NC(=O)[C@H](CCN)NC(=O)[C@@H]1CSSC(C)(C)[C@H](NC(=O)[C@H](Cc2ccc(O)cc2)NC(=O)[C@@H](NC(=O)[C@@H](NC(=O)[C@@H]2CCCN2C(=O)[C@@H](NC(=O)[C@@H]2C[C@@H](N)CN2)C(C)C)[C@@H](C)CC)[C@@H](C)CC)C(=O)N[C@@H](CC(N)=O)C(=O)N[C@@H](CCCNC(=N)N)C(=O)N[C@@H](CCN)C(=O)N[C@@H]([C@@H](C)O)C(=O)N[C@H](CCN)C(=O)N[C@@H](CCCCN)C(=O)N1)C(=O)O [Example 4, Pro((4R)NH2)-Val-Pro-Ile-Ile-Tyr-Pen-Asn-Arg-Dab-Thr-^DDab-Lys-Cys-Dab-Arg-Nle] (HELM PEPTIDE1{[N[C@H]1CN[C@H](C(=O)[*:2])C1].V.P.I.I.Y.[Pen].N.R.[Dab].T.[NCC[C@@H](N[*:1])C(=O)[*:2]].K.C.[Dab].R.[Nle]}$PEPTIDE1,PEPTIDE1,7:R3-14:R3$$$V2.0) | 0.125 | 0.125 | 0.125 | 0 |
| CC[C@H](C)[C@H](NC(=O)[C@@H]1C[C@@H](O)CN1C(=O)[C@@H](NC(=O)[C@@H]1C[C@@H](N)CN1C(=O)CNCCCN)C(C)C)C(=O)N[C@H](C(=O)N[C@@H](Cc1ccc(O)cc1)C(=O)N[C@@H]1C(=O)N[C@@H](CC(N)=O)C(=O)N[C@@H](CCCNC(=N)N)C(=O)N[C@@H](CCN)C(=O)N[C@@H]([C@@H](C)O)C(=O)N[C@H](CCN)C(=O)N[C@@H](CCCCN)C(=O)N[C@H](C(=O)N[C@@H](CCN)C(=O)N[C@@H](CCCNC(=N)N)C(=O)N[C@@H](Cc2ccc(O)cc2)C(=O)O)CSSC1(C)C)[C@@H](C)O [Example 51, Norn-Pro((4R)NH2)-Val-Hyp-Ile-Thr-Tyr-Pen-Asn-Arg-Dab-Thr-^DDab-Lys-Cys-Dab-Arg-Tyr] (H-[Gly(N(CH2)3NH2)][Pro(4R-NH2)]V[Hyp]ITY[Pen]NR[Dab]T[dDab]KC[Dab]RY-OH; disulfide 8-15) | 0.25 | – | 0.0625 | 0 |
| CC[C@H](C)[C@H](NC(=O)[C@@H]1C[C@@H](O)CN1C(=O)[C@@H](NC(=O)[C@@H]1C[C@@H](N)CN1C(=O)CNCCCCN)C(C)C)C(=O)N[C@H](C(=O)N[C@@H](Cc1ccc(O)cc1)C(=O)N[C@@H]1C(=O)N[C@@H](CC(N)=O)C(=O)N[C@@H](CCCNC(=N)N)C(=O)N[C@@H](CCN)C(=O)N[C@@H]([C@@H](C)O)C(=O)N[C@H](CCN)C(=O)N[C@@H](CCCCN)C(=O)N[C@H](C(=O)N[C@@H](CCN)C(=O)N[C@@H](CCCNC(=N)N)C(=O)N[C@@H](Cc2ccc(O)cc2)C(=O)O)CSSC1(C)C)[C@@H](C)O [Example 52, Nlys-Pro((4R)NH2)-Val-Hyp-Ile-Thr-Tyr-Pen-Asn-Arg-Dab-Thr-^DDab-Lys-Cys-Dab-Arg-Tyr] (H-[Nlys][Pro(4R-NH2)]V[Hyp]ITY[Pen]NR[Dab]T[dDab]KC[Dab]RY-OH; disulfide 8-15) | 0.125 | – | 0.0625 | 0 |

More lines, main results first:

| Klebsiella pneumoniae SSI3010 MIC [1] [µg/mL] | Escherichia coli MCR-1 Af 45 MIC [2] [µg/mL] | Escherichia coli ATCC 25922 MIC [3] [µg/mL] | Compound | Hemolysis at 0.2 g/L [4] [%] |
| --- | --- | --- | --- | --- |
| 0.125 | 0.0625 | 0.0625 | CCCC[C@H](NC(=O)[C@H](CCCNC(=N)N)NC(=O)[C@H](CCN)NC(=O)[C@@H]1CSSC[C@H](NC(=O)[C@H](Cc2ccc(O)cc2)NC(=O)[C@@H](NC(=O)[C@@H](NC(=O)[C@@H]2CCCN2C(=O)[C@@H](NC(=O)[C@H](N)CCCCN)C(C)C)[C@@H](C)CC)[C@@H](C)CC)C(=O)N[C@@H](CC(N)=O)C(=O)N[C@@H](CCCNC(=N)N)C(=O)N[C@@H](CCCNC(=N)N)C(=O)N[C@@H]([C@@H](C)O)C(=O)N[C@H](CCN)C(=O)N[C@@H](CCCCN)C(=O)N1)C(=O)O [Example 1] (HELM PEPTIDE1{[dK].V.P.I.I.Y.C.N.R.R.T.[NCC[C@@H](N[*:1])C(=O)[*:2]].K.C.[Dab].R.[Nle]}$PEPTIDE1,PEPTIDE1,7:R3-14:R3$$$V2.0) | 0 |
| 0.125 | – | 0.125 | CCCC[C@H](NC(=O)[C@H](CCCNC(=N)N)NC(=O)[C@H](CCN)NC(=O)[C@@H]1CSSC[C@H](NC(=O)[C@H](Cc2ccc(O)cc2)NC(=O)[C@@H](NC(=O)[C@@H](NC(=O)[C@@H]2C[C@@H](O)CN2C(=O)[C@@H](NC(=O)[C@@H]2C[C@@H](O)CN2C(=O)[C@H](CCCCN)NC(=O)[C@@H](N)CCCCN)C(C)C)[C@@H](C)CC)[C@@H](C)CC)C(=O)N[C@@H](CC(N)=O)C(=O)N[C@@H](CCCNC(=N)N)C(=O)N[C@@H](CCN)C(=O)N[C@@H]([C@@H](C)O)C(=O)N[C@H](CCN)C(=O)N[C@@H](CCCCN)C(=O)N1)C(=O)O [Example 78, Lys-Lys-Hyp-Val-Hyp-Ile-Ile-Tyr-Cys-Asn-Arg-Dab-Thr-^DDab-Lys-Cys-Dab-Arg-Nle] (HELM PEPTIDE1{K.K.[Hyp].V.[Hyp].I.I.Y.C.N.R.[Dab].T.[NCC[C@@H](N[*:1])C(=O)[*:2]].K.C.[Dab].R.[Nle]}$PEPTIDE1,PEPTIDE1,9:R3-16:R3$$$V2.0) | 0 |
| 0.0625 | – | 0.0625 | CC[C@H](C)[C@H](NC(=O)[C@@H]1C[C@@H](O)CN1C(=O)[C@@H](NC(=O)[C@@H]1C[C@@H](N)CN1C(=O)[C@H](CCCCN)NC(=O)[C@@H](N)CCCCN)C(C)C)C(=O)N[C@H](C(=O)N[C@@H](Cc1ccc(O)cc1)C(=O)N[C@@H]1C(=O)N[C@@H](CC(N)=O)C(=O)N[C@@H](CCCNC(=N)N)C(=O)N[C@@H](CCN)C(=O)N[C@@H]([C@@H](C)O)C(=O)N[C@H](CCN)C(=O)N[C@@H](CCCCN)C(=O)N[C@H](C(=O)N[C@@H](CCN)C(=O)N[C@@H](CCCNC(=N)N)C(=O)N[C@@H](Cc2ccc(O)cc2)C(=O)O)CSSC1(C)C)[C@@H](C)O [Example 127, Lys-Lys-Pro((4R)NH2)-Val-Hyp-Ile-Thr-Tyr-Pen-Asn-Arg-Dab-Thr-^DDab-Lys-Cys-Dab-Arg-Tyr] (HELM PEPTIDE1{K.K.[N[C@@H]1C[C@@H](C(=O)[*:2])N([*:1])C1].V.[Hyp].I.T.Y.[Pen].N.R.[Dab].T.[NCC[C@@H](N[*:1])C(=O)[*:2]].K.C.[Dab].R.Y}$PEPTIDE1,PEPTIDE1,9:R3-16:R3$$$V2.0; N-terminus and C-terminus assumed) | 0 |
